The source of these data is US20090252013A1, “HYDRAZIDE CHELATE COMPLEX COMPOUND, OPTICAL RECORDING MEDIUM USING THE COMPOUND AND RECORDING METHOD THEREOF” (Mitsubishi Chemical Corporation, priority 2006, published 2009).

Data set [1] is described as follows: Solubility test in coating solvent (2,2,3,3-tetrafluoropropanol). Type of data set: physicochemical. The note with it: 20° C., result in words. The protocol: The dissolution is determined by whether or not residual crystals of the compound remain in the solvent when the compound and TFP are mixed with a predetermined concentration.
Then, the solution was dropped to filter paper (“No. 5C” quantitative filter paper manufactured by Toyo Roshi Kaisha), and dried at room temperature for 24 hours. It was visually observed whether or not crystal residues of undissolved components were present on the filter paper.

Data set [2] in a line: Light fastness test (xenon lamp) of dye recording layer. The note with it: xenon lamp 0.55 W/m^2, 40 hours, 58° C., humidity 50%, absorbance at absorption maximum. Type of data set: physicochemical. The protocol:
First, a solution containing a hydrazide chelate complex compound is applied over a substrate such that the film thickness after drying is about 50 nm, followed by drying, thus obtaining a layer containing the hydrazide chelate complex compound. The layer containing the resulting dye is irradiated with a xenon lamp (intensity 0.55 W/m^2) for a predetermined period of time under conditions at a temperature of 58° C. and a humidity of 50%. The absorbances at the absorption maximum wavelength before and after the irradiation are compared to obtain the dye residual ratio.
The resulting compound (A-6) was dissolved in 2,2,3,3-tetrafluoropropanol at a concentration of 1.0% by weight, and minute foreign particles were removed by filtration. Then, the resulting solution was dropped to an injection-molded polycarbonate substrate with a diameter of 120 mm and a thickness of 1.2 mm and coating was performed by spin coating (4,900 rpm), followed by drying at 80° C. for 30 minutes. […]
Under the conditions of temperature 58° C. and humidity 50%, a recording layer was irradiated with a xenon lamp at an irradiation intensity of 0.55 W/m^2 for 40 hours. Then, the dye residual ratio in the recording layer was determined on the basis of the absorbances before and after irradiation at the absorption maximum wavelength.

For the compound `[CH2-][N+](=C\C=C\c1ccc(N(CC)CC)cc1)/N=C(\[O][Co-]1[O]C(c2c(C)cc(C)cc2C)=N/[N+]1=C/C=C/c1ccc(N(CC)CC)cc1)c1c(C)cc(C)cc1C` [Compound B-6, reference compound], in data set [1], the “solubility in a coating solvent at a concentration of 0.7% by weight” value (shortened to “solubility … of 0.7% by weight”) is “the amount of insolubles was large” and the “solubility in a coating solvent at a concentration of 1.0% by weight” value (“solubility … of 1.0% by weight” below) is “the amount of insolubles was large”.
Take `CCCN(CCC)S(=O)(=O)c1ccc(C2=N[N+](=CC=C3N(CC)c4ccc(OC)cc4C3(C)Cc3ccccc3)[Co-2]3([O]2)[O]C(c2ccc(S(=O)(=O)N(CCC)CCC)cc2)=N[N+]3=CC=C2N(CC)c3ccc(OC)cc3C2(C)Cc2ccccc2)cc1` (centres unmarked) [Compound A-211]: in data set [1], the “solubility … of 0.7% by weight” value was “completely dissolved” and the “solubility … of 1.0% by weight” value was “completely dissolved”.
Regarding `CCN(CC)C(=O)c1ccc(C2=N[N+](=CC=C3N(CC)c4ccc(OC)cc4C3(C)Cc3ccccc3)[Co-2]3([O]2)[O]C(c2ccc(C(=O)N(CC)CC)cc2)=N[N+]3=CC=C2N(CC)c3ccc(OC)cc3C2(C)Cc2ccccc2)cc1` (centres unmarked) [Compound A-159], in data set [1], the “solubility … of 0.7% by weight” value was “completely dissolved” and the “solubility … of 1.0% by weight” value is “completely dissolved”.
As to `CCN1C(=CC=[N+]2N=C(c3ccccc3OC)[O][Co-2]23[O]C(c2ccccc2OC)=N[N+]3=CC=C2N(CC)c3ccc(OC)cc3C2(C)Cc2ccccc2)C(C)(Cc2ccccc2)c2cc(OC)ccc21` (centres unmarked) [Compound A-150], in data set [1], the “solubility … of 0.7% by weight” value is “completely dissolved” and the “solubility … of 1.0% by weight” value is reported as “completely dissolved”.
On to `CCOC(=O)CC1=N[N+](=CC=C2N(CC)c3ccccc3C2(C)Cc2ccccc2)[Co-2]2([O]1)[O]C(CC(=O)OCC)=N[N+]2=CC=C1N(CC)c2ccccc2C1(C)Cc1ccccc1` (centres unmarked) [Compound A-11], for which, in data set [1], the “solubility … of 0.7% by weight” value is recorded as “completely dissolved” and the “solubility … of 1.0% by weight” value is “completely dissolved”. Besides, the “dye residual ratio (after 40-hour light fastness test)” value in data set [2] worked out at 91%.
Consider `[CH2-][N+]1=C\c2n(C)c3ccccc3[n+]2[Co-3]23([O]C(c4ccc(N(C)C)cc4)=N[N+]2=Cc2n(C)c4ccccc4[n+]23)[O]/C(c2ccc(N(C)C)cc2)=N\1` [Compound B-5, reference compound], for which, in data set [1], the “solubility … of 0.7% by weight” value is reported as “the amount of insolubles was large” and the “solubility … of 1.0% by weight” value was “the amount of insolubles was large”.
For `CCOC(=O)CC1=N[N+](=CC=C2N(C)c3ccccc3C2(C)C)[Co-2]2([O]1)[O]C(CC(=O)OCC)=N[N+]2=CC=C1N(C)c2ccccc2C1(C)C` (centres unmarked) [Compound A-6], in data set [1], the “solubility … of 0.7% by weight” value was “completely dissolved” and the “solubility … of 1.0% by weight” value is listed as “completely dissolved”. Besides, the “dye residual ratio (after 40-hour light fastness test)” value in data set [2] turned out to be 90%.
For `CN1C(=CC=[N+]2N=C(c3ccccc3)[O][Cu-2]23[O]C(c2ccccc2)=N[N+]3=CC=C2N(C)c3ccccc3C2(C)C)C(C)(C)c2ccccc21` (centres unmarked) [Compound A-2], in data set [1], the “solubility … of 0.7% by weight” value was “completely dissolved” and the “solubility … of 1.0% by weight” value was “the amount of insolubles was slight”.
In the case of `CCN1C(=CC=[N+]2N=C(c3ccc(C(=O)OC)cc3)[O][Co-2]23[O]C(c2ccc(C(=O)OC)cc2)=N[N+]3=CC=C2N(CC)c3ccc(OC)cc3C2(C)Cc2ccccc2)C(C)(Cc2ccccc2)c2cc(OC)ccc21` (centres unmarked) [Compound A-186], in data set [1], the “solubility … of 0.7% by weight” value is on record as “completely dissolved” and the “solubility … of 1.0% by weight” value is “completely dissolved”.
As to `CCN1C(=CC=[N+]2N=C(c3cccc(OCCOC)c3)[O][Co-2]23[O]C(c2cccc(OCCOC)c2)=N[N+]3=CC=C2N(CC)c3ccc(OC)cc3C2(C)Cc2ccccc2)C(C)(Cc2ccccc2)c2cc(OC)ccc21` (centres unmarked) [Compound A-212], in data set [1], the “solubility … of 0.7% by weight” value is “completely dissolved” and the “solubility … of 1.0% by weight” value is given as “completely dissolved”.
Regarding `CCN1C(=CC=[N+]2N=C(c3ccccc3)[O][Co-2]23[O]C(c2ccccc2)=N[N+]3=CC=C2N(CC)c3ccc(OC)cc3C2(C)C)C(C)(C)c2cc(OC)ccc21` (centres unmarked) [Compound A-86], in data set [1], the “solubility … of 0.7% by weight” value was “completely dissolved” and the “solubility … of 1.0% by weight” value is “completely dissolved”.
On to `CCOc1ccccc1C1=N[N+](=CC=C2N(CC)c3c(ccc4ccccc34)C2(C)C)[Co-2]2([O]1)[O]C(c1ccccc1OCC)=N[N+]2=CC=C1N(CC)c2c(ccc3ccccc23)C1(C)C` (centres unmarked) [Compound A-88], for which, in data set [1], the “solubility … of 0.7% by weight” value was “completely dissolved” and the “solubility … of 1.0% by weight” value is “completely dissolved”.
Take `CN(C)c1ccc(C2=N/[N+](=C/c3ccccn3)[Co-2]3([O]2)[O]C(c2ccc(N(C)C)cc2)=N/[N+]3=C/c2ccccn2)cc1` [Compound B-4, reference compound]: in data set [1], the “solubility … of 0.7% by weight” value was “the amount of insolubles was large” and the “solubility … of 1.0% by weight” value is “the amount of insolubles was large”.
With `CCN1C(=CC=[N+]2N=C(c3cccc(OC)c3)[O][Co-2]23[O]C(c2cccc(OC)c2)=N[N+]3=CC=C2N(CC)c3ccc(OC)cc3C2(C)C)C(C)(C)c2cc(OC)ccc21` (centres unmarked) [Compound A-87], in data set [1], the “solubility … of 0.7% by weight” value is listed as “completely dissolved” and the “solubility … of 1.0% by weight” value is reported as “completely dissolved”.
As for `CCN1C(=CC=[N+]2N=C(c3ccc(C(=O)OC)cc3)[O][Co-2]23[O]C(c2ccc(C(=O)OC)cc2)=N[N+]3=CC=C2N(CC)c3ccc(OC)cc3C2(C)Cc2cccc(F)c2)C(C)(Cc2cccc(F)c2)c2cc(OC)ccc21` (centres unmarked) [Compound A-152], in data set [1], the “solubility … of 0.7% by weight” value was “completely dissolved” and the “solubility … of 1.0% by weight” value was “completely dissolved”.
